Assay results taken from patent US20250032426A1, “PHARMACEUTICAL COMPOSITIONS” (SpecNova LLC, priority 2021, published 2025).

Target: Human Dopamine Transporter (DAT) (Homo sapiens, UniProt Q01959)
Experiment: Human Dopamine Transporter (DAT) Binding (Antagonist Radioligand) Assay
Conditions: for % of Control Specific Binding (1st Test) / % of Control Specific Binding (2nd Test) / % Inhibition of Control Specific Binding / % of Control Specific Binding (mean of two tests): [3H]BTCP 4 nM radioligand; for % Inhibition of Control Specific Binding: cell membrane homogenates, 120 min at 4° C., test concentration not given; for level of inhibition in the dopamine transporter inhibitory assay (in words): qualitative statement in the description
Experimental: Human Dopamine Transporter (DAT) Binding (Antagonist Radioligand) Assay
Nonspecific binding is determined in the presence of 10 μM BTCP. Following incubation, the samples are filtered rapidly under vacuum through glass fiber filters (GF/B, Packard) presoaked with 0.3% PEI and rinsed several times with ice-cold 50 mM Tris-HCl using a 96-sample cell harvester (Unifilter, Packard). The filters are dried then counted for radioactivity in a scintillation counter (Topcount, Packard) using a scintillation cocktail (Microscint 0, Packard). The results are expressed as a percent inhibition of the control radioligand specific binding.

Chain of Human Dopamine Transporter (DAT) (Q01959 whole entry): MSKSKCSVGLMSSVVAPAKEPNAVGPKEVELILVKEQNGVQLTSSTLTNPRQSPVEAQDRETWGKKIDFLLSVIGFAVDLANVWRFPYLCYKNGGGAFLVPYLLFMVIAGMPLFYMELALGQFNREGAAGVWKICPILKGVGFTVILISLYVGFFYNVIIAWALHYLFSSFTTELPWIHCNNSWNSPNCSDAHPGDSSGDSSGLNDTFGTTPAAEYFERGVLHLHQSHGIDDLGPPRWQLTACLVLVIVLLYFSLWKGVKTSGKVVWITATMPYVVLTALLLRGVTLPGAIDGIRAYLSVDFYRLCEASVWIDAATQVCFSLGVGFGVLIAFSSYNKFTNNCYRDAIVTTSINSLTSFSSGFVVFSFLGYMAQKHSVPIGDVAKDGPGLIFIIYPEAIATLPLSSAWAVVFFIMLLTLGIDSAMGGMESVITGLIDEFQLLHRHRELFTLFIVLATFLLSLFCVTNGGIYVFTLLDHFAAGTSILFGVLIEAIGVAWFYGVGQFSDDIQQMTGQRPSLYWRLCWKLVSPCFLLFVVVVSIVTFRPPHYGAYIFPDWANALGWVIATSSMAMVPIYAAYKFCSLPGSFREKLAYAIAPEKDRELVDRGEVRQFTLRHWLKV

| % of Control Specific Binding (1st Test) [%] | % of Control Specific Binding (2nd Test) [%] | % Inhibition of Control Specific Binding [%] | % of Control Specific Binding (mean of two tests) [%] | level of inhibition in the dopamine transporter inhibitory assay (in words) | SMILES |
| --- | --- | --- | --- | --- | --- |
| 4.2 | 5 | 95 | 4.6 | extremely high level of inhibition | OC[C@@H](O)[C@@H](/C=C/c1ccc(O)cc1)c1ccc(O)cc1 [Agatharesinol, (2S,3S,4E)-3,5-bis(4-hydroxyphenyl)pent-4-ene-1,2-diol] |
| 7.4 | 5.6 | 94 | 6.5 | extremely high level of inhibition | OC[C@@H](O)[C@@H](/C=C/c1ccc(O)cc1)c1ccc(O)c(O)c1 [Sequirin C, 4-[(1S,2E)-1-[(1S)-1,2-dihydroxyethyl]-3-(4-hydroxyphenyl)prop-2-en-1-yl]benzene-1,2-diol] |

| SMILES | % of Control Specific Binding (1st Test) [%] | % of Control Specific Binding (2nd Test) [%] | % Inhibition of Control Specific Binding [%] | % of Control Specific Binding (mean of two tests) [%] | level of inhibition in the dopamine transporter inhibitory assay (in words) |
| --- | --- | --- | --- | --- | --- |
| CC(C)=CCc1c(C2CCc3ccc(O)cc3O2)ccc(O)c1O (stereo in doubt) [Kazinol U, 4-[(2S)-7-hydroxy-3,4-dihydro-2H-chromen-2-yl]-3-(3-methylbut-2-enyl) benzene-1,2-diol] | 33.6 | 42.8 | 62 | 38.2 | high level of inhibition |
